Six molecules from US20190365843A1, “Antimicrobial Activity of Bioactive Compounds and Their Derivatives” (priority 2018, published 2019) can be followed below.

Experiment [1] has as its system S. aureus. As to the kind of experiment: Agar diffusion growth inhibition zone, S. aureus. In kind it is cell-based, Staphylococcus aureus. The note with it: for zone of inhibition at 100 mg/mL / zone of inhibition at 150 mg/mL: Staphylococcus aureus, 6 mm = no activity. How it is done: (§1) Among the bacterial agents tested Gram positive and Gram negative bacterial groups represented by Staphylococcus aureus and Enterococcus species and pathogenic members of Enterobacteriaceae, Vibronaceae, Aeromonadaceae, Pseudomonadaceae were tested. Freshly sub-cultured bacterial strains were inoculated into peptone water and incubated for 4 hours at 37° C. and adjusted to a turbidity of 0.5 (Gram Negative Bacilli), 1 (Gram Positive Cocci) and 4 (Pus cells, GNB, & few Budding yeast cells) Mc Farland standards (10^8 CFU/ml) respectively.
(§2) The different bioactive compounds and their derivatives were dissolved and diluted with solvents (DMSO), number of subsequent dilutions was performed to obtain different concentrations of the bioactive compounds and their derivatives. (Working Concentrations).
(§3) Agar well diffusion method is widely used to evaluate the antimicrobial activity of plants or other synthetic products. The suspension (microbial inoculum) was used to inoculate into Muller Hinton Agar Petri plates by lawn culture. Well (diameter 6 mm) were punched in the agar by sterile borer and filled with 50 μl of dissolved extracts. Plates were incubated in incubator at 37° C. for 24 hours and measured the growth inhibition zone diameters in mm compared with that of control (DMSO) showing no growth.
(§4) The bioactive compounds were tested with desired concentrations in 6 mm filter paper discs (Whatman, no. 3) were impregnated with 10 μL of each of the different dilutions. The discs were allowed to remain at room temperature until complete diluent evaporation and kept under refrigeration until ready to be used. 10 μL of diluents used to products were used as control. Tests were performed by Agar disk-diffusion testing method, which is the official method used in many clinical microbiology laboratories for routine antimicrobial susceptibility testing.
(§5) Similar to the procedure used in Agar well diffusion method, the suspension (microbial inoculum) was used to inoculate into Muller Hinton Agar Petri plates by lawn culture. Then, filter paper discs (about 6 mm in diameter), containing the test compound at a desired concentration, were placed on the agar surface. The Petri dishes were incubated under suitable incubation conditions.
(§6) Bioactive compounds showing zone of inhibition beyond the size of 6 mm are considered to be having an anti-microbial activity.
A general note: In agar diffusion tests the substance spreads into inoculated agar from a disc or well.

In experiment [2] the test system is Enterococcus sp. Briefly: Agar diffusion growth inhibition zone, Enterococcus sp. Format: cell-based, Enterococcus species. The note with it: 6 mm = no activity. How it is done:
as §1, §2, §3, §4, §5, §6

The subject of experiment [3] is Salmonella typhimurium. As to the kind of experiment: Agar diffusion growth inhibition zone, Salmonella typhimurium. In kind it is cell-based. The note with it: Salmonella enterica, 6 mm = no activity. How it is done:
as §1, §2, §3, §4, §5, §6

The test system of experiment [4] is Proteus sp. Briefly: Agar diffusion growth inhibition zone, Proteus sp. In kind it is cell-based, Proteus species. The note with it: for zone of inhibition at 150 mg/mL: Proteus sp., 6 mm = no activity. How it is done:
as §1, §2, §3, §4, §5, §6

For experiment [5], the system named is E. coli ATCC 25922. Briefly: Agar diffusion growth inhibition zone, E. coli ATCC 25922. In kind it is cell-based. Conditions: Escherichia coli, 6 mm = no activity; for zone of inhibition at 100 mg/mL: ATCC25922, 100 mg; for zone of inhibition at 150 mg/mL: ATCC25922, 150 mg. How it is done:
as §1, §2, §3, §4, §5, §6

Experiment [6] relates to EAEC. Briefly: Agar diffusion growth inhibition zone, EAEC. In kind it is cell-based, Enteroaggregative E. coli. Conditions: Escherichia coli, 6 mm = no activity. How it is done: as §1, §2, §3, §4, §5, §6
In experiment [7] the test system is ETEC. As to the kind of experiment: Agar diffusion growth inhibition zone, ETEC. In kind it is cell-based, Enterotoxigenic E. coli.
Description: (§7) Agar well diffusion method is widely used to evaluate the antimicrobial activity of plants or other synthetic products. The suspension (microbial inoculum) was used to inoculate into Muller Hinton Agar Petri plates by lawn culture. Well (diameter 6 mm) were punched in the agar by sterile borer and filled with 50 μl of dissolved extracts. Plates were incubated in incubator at 37° C. for 24 hours and measured the growth inhibition zone diameters in mm compared with that of control (DMSO) showing no growth. The antimicrobial agent diffuses in the agar medium and inhibits the growth of the microbial strain tested (Valgas et al., (2016) Methods for in vitro evaluating antimicrobial activity: A review. Journal of Pharmaceutical Analysis. 6(2):71-9).
(§8) Similar to the procedure used in Agar well diffusion method, the suspension (microbial inoculum) was used to inoculate into Muller Hinton Agar Petri plates by lawn culture. Then, filter paper discs (about 6 mm in diameter), containing the test compound at a desired concentration, were placed on the agar surface. The Petri dishes were incubated under suitable incubation conditions. Generally, antimicrobial agent diffuses into the agar and inhibits germination and growth of the test microorganism and then the diameters of inhibition growth zones are measured (Valgas et al., (2007) Screening methods to determine antibacterial activity of natural products. Brazilian Journal of Microbiology. 38:369-80; Balouiri M et al., (2016) Methods for in vitro evaluating antimicrobial activity: A review. Journal of Pharmaceutical Analysis. 6(2):71-9).
The test system of experiment [8] is Shigella sp. As to the kind of experiment: Agar diffusion growth inhibition zone, Shigella sp. In kind it is cell-based, Shigella species. Conditions: Shigella.
Description: as §7, §8
Experiment [9] deals with Pseudomonas sp. Briefly: Agar diffusion growth inhibition zone, Pseudomonas sp. In kind it is cell-based, Pseudomonas species. Conditions: Pseudomonas.
Description: as §7, §8
For experiment [10], the system named is Klebsiella sp. Briefly: Agar diffusion growth inhibition zone, Klebsiella sp. Conditions: 6 mm = no activity. Format: cell-based, Klebsiella species. How it is done: as §1, §2, §3, §4, §5, §6
In experiment [11] the test system is Aeromonas sp. Briefly: Agar diffusion growth inhibition zone, Aeromonas sp. Format: cell-based, Aeromonas species. The note with it: Aeromonas sp., 6 mm = no activity. How it is done: as §1, §2, §3, §4, §5, §6
The test system of experiment [12] is Pleisiomonas sp. As to the kind of experiment: Agar diffusion growth inhibition zone, Pleisiomonas sp. Format: cell-based, Pleisiomonas species. The note with it: for zone of inhibition at 100 mg/mL / zone of inhibition at 150 mg/mL: Pleisiomonas sp., 6 mm = no activity; for inhibition of growth: Plesiomonas species. How it is done:
as §1, §2, §3, §4, §5, §6

Experiment [13] has as its system Candida abicans. As to the kind of experiment: Agar diffusion growth inhibition zone, Candida abicans. Conditions: 6 mm = no activity. In kind it is cell-based, Candida albicans. How it is done: as §1, §2, §3, §4, §5, §6
The test system of experiment [14] is Vibrio cholera. Briefly: Agar diffusion growth inhibition zone, Vibrio cholera. In kind it is cell-based, Vibrio cholerae. Conditions: Vibrio cholerae.
Description: as §7, §8
For experiment [15], the system named is Citrobacter sp. As to the kind of experiment: Agar diffusion growth inhibition zone, Citrobacter sp. Format: cell-based, Citrobacter species. The note with it: 6 mm = no activity. How it is done: as §1, §2, §3, §4, §5, §6

What is called zone of inhibition is the size of the clear area around the sample on an inoculated plate. A high value points to a stronger effect on the plate. Turning to `COc1cc(/C=C/C(=O)CC(=O)/C=C/c2ccc(O)c(OC)c2)ccc1O` [compound 1, Curcumin], the zone of inhibition at 100 mg/mL in experiment [1] came to 10 mm; in experiment [2], 6 mm; in [3], 6 mm; in experiment [5], 6 mm; in experiment [6] it was 6 mm; in experiment [10], 6 mm. In addition, the zone of inhibition at 100 mg/mL came to 6 mm in experiment [11], 10 mm in [12], 6 mm in [13] and 6 mm in [15]. Moreover, the zone of inhibition at 150 mg/mL in experiment [1] was determined as 10 mm; in experiment [2], 6 mm; in experiment [3] it was 6 mm; in experiment [4], 11 mm; in experiment [5], 6 mm; in [6], 6 mm. Also, the zone of inhibition at 150 mg/mL in [10] amounted to 6 mm; in [11] it was 6 mm; in experiment [12], 10 mm; in experiment [13], 6 mm; in [15], 6 mm. In addition, the zone of inhibition in experiment [1] (concentration not given) amounted to 10 mm; in experiment [4] (Proteus species, at both concentrations of 100 mg and 150 mg) it was 11 mm. Further, the figures for the “inhibition of growth” value in experiment [7] (ETEC), in [12] and in [14] were “significantly inhibited the growth”, “inhibited” and “inhibited the growth”, respectively. For the same molecule, the zone of inhibition at 100000 µg/disc in [7] (Escherichia coli) is 10 mm; in [8] it was 6 mm; in experiment [9] it was 6 mm; in experiment [14], 10 mm. Further, the zone of inhibition at 150000 µg/disc worked out at 10 mm in [7] (Escherichia coli), 6 mm in experiment [8], 6 mm in [9] and 6 mm in experiment [14].
As for `COc1cc(CCc2cc(CCc3ccc(O)c(OC)c3)on2)ccc1O` [compound 8, Tetrahydrocurcumin Isoxazole], the zone of inhibition at 100 mg/mL in [1] came out at 6 mm; in experiment [2] it was 6 mm; in [3] it was 6 mm; in experiment [5], 6 mm; in experiment [6], 8 mm; in experiment [10], 6 mm. Also, the zone of inhibition at 100 mg/mL in [11], in [12], in experiment [13] and in experiment [15] was 6 mm each time. The zone of inhibition at 150 mg/mL in experiment [1] was found to be 6 mm; in [2], 6 mm; in [3], 6 mm; in experiment [4], 6 mm; in [5] it was 6 mm; in [6] it was 8 mm. Besides, the zone of inhibition at 150 mg/mL in experiment [10], in experiment [11], in experiment [12], in [13] and in [15] was 6 mm in each case. The zone of inhibition at 100000 µg/disc in experiment [8], in experiment [9] and in experiment [14] was 6 mm throughout. Besides, the zone of inhibition at 150000 µg/disc in experiment [8], in experiment [9] and in [14] was 6 mm each time.
With `COc1cc(/C=C/C(=O)COC(=O)/C=C/c2ccc(O)cc2)ccc1O` [compound 11, Demethoxycalebin- A1], the zone of inhibition at 100 mg/mL in [1], in experiment [2], in experiment [3], in experiment [5], in experiment [6] and in experiment [10] was 6 mm in each case. The zone of inhibition at 100 mg/mL in experiment [11], in [12], in experiment [13] and in experiment [15] was 6 mm in each case. For the same molecule, the zone of inhibition at 100000 µg/disc in [8], in experiment [9] and in [14] was 6 mm each time.
For `COc1cc(/C=C/C(=O)OCC(=O)/C=C/c2ccc(O)cc2)ccc1O` [compound 12, Demethoxycalebin- A2], the zone of inhibition at 100 mg/mL in experiment [1], in [2], in [3], in [5], in experiment [6] and in [10] was 6 mm in each case. In addition, the zone of inhibition at 100 mg/mL was determined as 6 mm in experiment [11], 10 mm in [12], 6 mm in experiment [13] and 6 mm in experiment [15]. For the same molecule, the zone of inhibition at 100000 µg/disc in experiment [8], in [9] and in experiment [14] was 6 mm in each case.
Consider `O=C(/C=C/c1ccc(O)cc1)COC(=O)/C=C/c1ccc(O)cc1` [compound 13, Bisdemethoxycalebin- A], for which the zone of inhibition at 100 mg/mL in [1], in experiment [2], in experiment [3], in [5], in experiment [6] and in experiment [10] was 6 mm in each case. Besides, the zone of inhibition at 100 mg/mL in experiment [11] is 6 mm; in experiment [12] it was 9 mm; in [13], 6 mm; in experiment [15], 6 mm. Further, the zone of inhibition at 100000 µg/disc in [8], in [9] and in experiment [14] was 6 mm each time. Further, in experiment [12], the “inhibition of growth” value was “inhibited”.
Regarding Demethoxycalebin-A, in experiment [12], the “inhibition of growth” value was “inhibited”.
